One test has as its target hT2R3 (Homo sapiens (Human), UniProt Q9NYW6). In words: hT2R panel inhibition, transient HEK293 G16g44, agonist Chloroquine pH6.5 50 μM. It is filed as cell-based. The following applies: HEK293, compound at 25 μM; receptor activated to EC80 with the corresponding agonist; read-out: screening result against bitter receptor 3. The method, boiled down: (§1)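 Inhibition is read as loss of receptor activity caused by the test compound against an EC80 agonist challenge. Receptors from a 22-member human panel were introduced one at a time into host cells already stably expressing the chimeric G protein.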

Another test deals with hT2R5 (Homo sapiens (Human), UniProt Q9NYW4). In words: hT2R panel inhibition, transient HEK293 G16g44, agonist Picoline 10 mM. It is filed as cell-based. The following applies: HEK293, compound at 25 μM; receptor activated to EC80 with the corresponding agonist; read-out: screening result against bitter receptor 5. The method, boiled down:
as §1

A further test concerns the target hT2R10 (Homo sapiens (Human), UniProt Q9NYW0). In words: hT2R panel inhibition, transient HEK293 G16g44, agonist Strychnine 50 μM. Format: cell-based. The following applies: HEK293, read-out: screening result against bitter receptor 10, compound at 25 μM; receptor activated to EC80 with the corresponding agonist.
The target of another test is hT2R14 (Homo sapiens (Human), UniProt Q9NYV8). The test can be described thus: hT2R panel inhibition, transient HEK293 G16g44, agonist Aristolochic Acid 2 μM. Format: cell-based. Conditions: HEK293, compound at 25 μM; receptor activated to EC80 with the corresponding agonist; read-out: screening result against bitter receptor 14. Put shortly:
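Agonist challenge was at EC80, with 0.5 mM andrographolide on hT2R8 and 2 μM aristolochic acid on hT2R14. Inhibition was measured in functional assays in HEK293 cells that stably carry the promiscuous G protein G16g44 and were transiently transfected with the individual receptor.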

A further test has as its target hT2R16 (Homo sapiens (Human), UniProt Q9NYV7). In words: hT2R panel inhibition, transient HEK293 G16g44, agonist Salicin 1 mM. Format: cell-based. Conditions: HEK293, compound at 25 μM; receptor activated to EC80 with the corresponding agonist; read-out: screening result against bitter receptor 16. Put shortly: as §1
The test system of another test is hT2R44. In words: hT2R panel inhibition, transient HEK293 G16g44, agonist Denatonium 0.5 μM. Format: cell-based, human. The following applies: compound at 25 μM; receptor activated to EC80 with the corresponding agonist. The method, boiled down:
as §1

A further test concerns the target hT2R51 (Homo sapiens (Human), UniProt P59533). The test can be described thus: hT2R panel inhibition, transient HEK293 G16g44, agonist Prop 2.5 μM. Format: cell-based. Conditions: HEK293, compound at 25 μM; receptor activated to EC80 with the corresponding agonist; read-out: screening result against bitter receptor 51. The protocol:
(§2) Specifically, in order to evaluate the inhibitory selectivity of the Compound C compound, this compound was tested against 22 human T2Rs which were deorphaned by Senomyx. These receptors and the bitter ligands that activate these human T2Rs are reported in earlier patent applications which are incorporated by reference herein. These 22 human T2Rs are hT2R1, 3, 4, 5, 7, 8, 9, 10, 13, 14, 16, 44, 51, 54, 55, 61, 63, 64, 65, 67, 71 and 75. The amino acid and nucleic acid sequences of all of these T2Rs may be found in these earlier patent applications. These human T2Rs were each individually transiently transfected into HEK293 cells that stably express the promiscuous G protein G16g44 and functional assays were effected using these receptors as disclosed in these same patent applications. […] The ligands were used at EC80 concentration levels. The list of bitter ligands utilized and the tested ligand concentrations are contained in Table 5 of this example.
(§3) Relating to the foregoing, FIG. 5 contains experimental results wherein Compound C was tested with different agonist compounds. The inhibition activity is represented by the reduction of receptor activity in the presence of Compound C. […] These 13 hT2Rs are hT2R3, 7, 10, 14, 16, 44, 51, 55, 61, 63, 64, 65, and 71.

A further test has as its system hT2R54. The test can be described thus: hT2R panel inhibition, transient HEK293 G16g44, agonist Ranitidine 5 mM. It is filed as cell-based, human. Conditions: compound at 25 μM; receptor activated to EC80 with the corresponding agonist. Put shortly: as §1
Another test deals with hT2R55. The test can be described thus: hT2R panel inhibition, transient HEK293 G16g44, agonist Cinchonine 150 μM. It is filed as cell-based, human. The following applies: compound at 25 μM; receptor activated to EC80 with the corresponding agonist. The method, boiled down:
as §1

For the next test, the target named is hT2R61 (Homo sapiens (Human), UniProt P59537). The test can be described thus: hT2R panel inhibition, transient HEK293 G16g44, agonist Aristolochic Acid 25 nM. It is filed as cell-based. Conditions: HEK293, compound at 25 μM; receptor activated to EC80 with the corresponding agonist; read-out: screening result against bitter receptor 61. The method, boiled down: as §1

Another test deals with hT2R63. In words: hT2R panel inhibition, transient HEK293 G16g44, agonist Caffeine 1 mM or Andrographolide 100 μM. It is filed as cell-based, human. Conditions: compound at 25 μM; receptor activated to EC80 with the corresponding agonist. The method, boiled down: as §1
The next test has as its target hT2R64 (Homo sapiens (Human), UniProt P59538). In words: hT2R panel inhibition, transient HEK293 G16g44, agonist Aristolochic Acid 1 μM. Format: cell-based. The following applies: HEK293, compound at 25 μM; receptor activated to EC80 with the corresponding agonist; read-out: screening result against bitter receptor 64. The method, boiled down: as §1
A further test has as its system hT2R65. In words: hT2R panel inhibition, transient HEK293 G16g44, agonist Oleuropein 1 mM. Format: cell-based, human. The following applies: compound at 25 μM; receptor activated to EC80 with the corresponding agonist. Put shortly:
as §1

Another test deals with hT2R67. In words: hT2R panel inhibition, transient HEK293 G16g44, agonist Andrographolide 5 μM. Format: cell-based, human. The following applies: compound at 25 μM; receptor activated to EC80 with the corresponding agonist. The method, boiled down: as §1
Another test addresses hT2R71 (Homo sapiens (Human), UniProt P59536). The test can be described thus: hT2R panel inhibition, transient HEK293 G16g44, agonist Picric Acid 10 μM. Format: cell-based. The following applies: HEK293, compound at 25 μM; receptor activated to EC80 with the corresponding agonist; read-out: screening result against bitter receptor 71. Put shortly: as §1
The target in another test is hT2R75 (Homo sapiens (Human), UniProt P59540). The test can be described thus: hT2R panel inhibition, transient HEK293 G16g44, agonist Strychnine 1 μM. It is filed as cell-based. The following applies: HEK293, read-out: screening result against bitter receptor 75, compound at 25 μM; receptor activated to EC80 with the corresponding agonist. The protocol:
as §2, §3

In a further test the target is hT2R7 (Homo sapiens (Human), UniProt Q9NYW3). In words: hT2R panel inhibition, transient HEK293 G16g44, agonist Chloroquine pH6.5 10 mM. Format: cell-based. The following applies: HEK293, compound at 25 μM; receptor activated to EC80 with the corresponding agonist; read-out: screening result against bitter receptor 7. Put shortly: as §1
Chain of hT2R7 (Q9NYW3 whole entry): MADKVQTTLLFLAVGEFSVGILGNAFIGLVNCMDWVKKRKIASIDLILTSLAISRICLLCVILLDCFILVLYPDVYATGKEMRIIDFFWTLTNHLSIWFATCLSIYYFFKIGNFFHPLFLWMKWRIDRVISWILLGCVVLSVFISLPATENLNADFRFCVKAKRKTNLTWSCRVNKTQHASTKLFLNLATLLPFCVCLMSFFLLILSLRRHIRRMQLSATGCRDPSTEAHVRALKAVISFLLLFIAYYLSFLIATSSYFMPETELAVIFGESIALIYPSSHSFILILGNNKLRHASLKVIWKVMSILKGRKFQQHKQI

Chain of hT2R16 (Q9NYV7 whole entry): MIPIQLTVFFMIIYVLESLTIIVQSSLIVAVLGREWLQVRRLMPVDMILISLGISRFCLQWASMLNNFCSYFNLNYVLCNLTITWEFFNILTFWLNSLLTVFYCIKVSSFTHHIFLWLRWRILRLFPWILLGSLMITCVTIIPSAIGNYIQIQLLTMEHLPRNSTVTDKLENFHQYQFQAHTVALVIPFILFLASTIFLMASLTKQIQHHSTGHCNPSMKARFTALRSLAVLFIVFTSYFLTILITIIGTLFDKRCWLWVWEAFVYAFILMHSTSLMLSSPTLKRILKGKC
Chain of hT2R10 (Q9NYW0 whole entry): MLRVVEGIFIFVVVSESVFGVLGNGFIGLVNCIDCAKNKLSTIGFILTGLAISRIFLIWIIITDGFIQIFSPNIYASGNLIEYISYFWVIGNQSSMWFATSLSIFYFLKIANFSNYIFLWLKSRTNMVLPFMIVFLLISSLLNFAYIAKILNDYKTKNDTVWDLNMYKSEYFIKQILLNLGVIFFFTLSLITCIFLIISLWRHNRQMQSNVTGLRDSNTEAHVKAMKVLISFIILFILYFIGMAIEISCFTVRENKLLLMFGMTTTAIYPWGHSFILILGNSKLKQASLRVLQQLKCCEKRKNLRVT
Chain of hT2R5 (Q9NYW4 whole entry): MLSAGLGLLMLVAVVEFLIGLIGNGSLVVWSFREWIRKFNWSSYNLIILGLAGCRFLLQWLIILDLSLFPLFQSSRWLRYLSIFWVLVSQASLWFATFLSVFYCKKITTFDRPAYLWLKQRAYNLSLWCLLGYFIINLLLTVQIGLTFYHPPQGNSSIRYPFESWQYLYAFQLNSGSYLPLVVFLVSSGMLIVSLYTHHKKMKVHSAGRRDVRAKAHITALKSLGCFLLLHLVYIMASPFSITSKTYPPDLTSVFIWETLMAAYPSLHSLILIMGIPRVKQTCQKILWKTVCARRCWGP
Chain of hT2R14 (Q9NYV8 whole entry): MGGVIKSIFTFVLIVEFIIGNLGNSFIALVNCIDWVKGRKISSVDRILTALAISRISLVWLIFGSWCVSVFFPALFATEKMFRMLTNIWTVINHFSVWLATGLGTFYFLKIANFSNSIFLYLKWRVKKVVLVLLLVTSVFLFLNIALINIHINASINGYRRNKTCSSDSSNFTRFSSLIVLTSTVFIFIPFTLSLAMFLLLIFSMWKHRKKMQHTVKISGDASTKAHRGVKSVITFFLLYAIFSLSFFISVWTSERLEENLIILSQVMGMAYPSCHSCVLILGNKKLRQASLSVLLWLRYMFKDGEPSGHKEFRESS
Chain of hT2R71 (P59536 whole entry): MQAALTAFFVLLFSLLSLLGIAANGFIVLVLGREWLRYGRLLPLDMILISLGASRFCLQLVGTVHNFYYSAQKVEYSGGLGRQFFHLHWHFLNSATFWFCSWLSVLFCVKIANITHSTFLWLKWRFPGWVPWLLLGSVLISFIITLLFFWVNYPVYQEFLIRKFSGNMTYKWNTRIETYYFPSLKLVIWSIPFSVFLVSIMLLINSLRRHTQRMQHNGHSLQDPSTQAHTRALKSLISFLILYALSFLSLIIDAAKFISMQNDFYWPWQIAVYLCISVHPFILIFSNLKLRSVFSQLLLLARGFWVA
Chain of hT2R64 (P59538 whole entry): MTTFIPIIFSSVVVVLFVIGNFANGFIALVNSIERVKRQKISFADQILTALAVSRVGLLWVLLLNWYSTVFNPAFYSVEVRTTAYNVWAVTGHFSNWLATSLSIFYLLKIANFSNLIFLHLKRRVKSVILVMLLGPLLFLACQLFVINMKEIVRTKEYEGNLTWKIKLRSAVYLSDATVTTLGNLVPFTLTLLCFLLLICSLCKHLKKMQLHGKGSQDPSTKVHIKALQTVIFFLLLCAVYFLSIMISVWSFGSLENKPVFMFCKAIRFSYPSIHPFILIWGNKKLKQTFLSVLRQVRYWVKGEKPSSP
Chain of hT2R51 (P59533 whole entry): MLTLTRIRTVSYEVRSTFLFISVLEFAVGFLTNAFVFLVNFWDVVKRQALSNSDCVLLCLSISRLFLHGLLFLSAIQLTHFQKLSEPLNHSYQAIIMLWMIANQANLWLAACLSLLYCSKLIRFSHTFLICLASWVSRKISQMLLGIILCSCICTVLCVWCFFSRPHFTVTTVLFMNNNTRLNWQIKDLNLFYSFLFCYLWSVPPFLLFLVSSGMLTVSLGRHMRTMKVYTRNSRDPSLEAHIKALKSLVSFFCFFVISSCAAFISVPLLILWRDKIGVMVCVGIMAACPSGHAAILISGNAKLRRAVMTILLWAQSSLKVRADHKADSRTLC
Chain of hT2R61 (P59537 whole entry): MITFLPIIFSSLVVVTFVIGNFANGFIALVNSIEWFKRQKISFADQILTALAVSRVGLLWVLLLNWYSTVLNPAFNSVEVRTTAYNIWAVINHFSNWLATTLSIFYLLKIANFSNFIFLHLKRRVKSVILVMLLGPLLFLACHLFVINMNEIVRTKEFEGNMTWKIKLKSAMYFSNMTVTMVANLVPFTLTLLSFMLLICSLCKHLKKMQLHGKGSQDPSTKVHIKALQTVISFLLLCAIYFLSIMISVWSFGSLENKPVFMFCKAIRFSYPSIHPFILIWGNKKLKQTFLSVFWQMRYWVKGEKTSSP
Chain of hT2R75 (P59540 whole entry): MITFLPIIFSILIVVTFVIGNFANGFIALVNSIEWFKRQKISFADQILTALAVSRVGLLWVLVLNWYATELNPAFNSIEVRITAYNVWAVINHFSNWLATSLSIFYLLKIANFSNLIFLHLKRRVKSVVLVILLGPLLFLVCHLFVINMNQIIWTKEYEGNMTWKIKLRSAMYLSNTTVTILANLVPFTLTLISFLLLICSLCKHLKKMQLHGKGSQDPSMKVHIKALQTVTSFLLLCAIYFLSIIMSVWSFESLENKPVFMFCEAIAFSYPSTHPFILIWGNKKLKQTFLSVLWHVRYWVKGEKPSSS
Chain of hT2R3 (Q9NYW6 whole entry): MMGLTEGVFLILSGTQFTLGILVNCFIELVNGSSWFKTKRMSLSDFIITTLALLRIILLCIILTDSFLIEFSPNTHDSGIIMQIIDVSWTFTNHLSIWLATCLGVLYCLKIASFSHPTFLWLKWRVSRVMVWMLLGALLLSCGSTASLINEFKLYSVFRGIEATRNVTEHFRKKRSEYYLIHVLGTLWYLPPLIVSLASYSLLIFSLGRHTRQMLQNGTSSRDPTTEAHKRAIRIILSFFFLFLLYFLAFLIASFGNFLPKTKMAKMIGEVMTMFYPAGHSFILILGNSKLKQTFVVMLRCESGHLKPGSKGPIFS

On to `CSc1ccc(CN(Cc2ccccc2)S(=O)(=O)c2ccc(C(=O)O)cc2)cc1` [Example 5-78, 4-(N-benzyl-N-(4-(methylthio)benzyl)sulfamoyl)benzoic acid], for which the inhibition at 25 µM at hT2R3 was 20 to 40%; on hT2R5 it was 20 to 40%; on hT2R10, 20 to 40%; at hT2R14, above 80%; on hT2R16, 20 to 40%; at hT2R51 it was 20 to 40%. For the same molecule, the inhibition at 25 µM at hT2R61 was above 80%; at hT2R64 it was 40 to 60%; at hT2R71 it was 40 to 60%; on hT2R75, 20 to 40%. In addition, the “screening result against bitter receptor 44” value in the test with hT2R44 is on record as “+ (20% to 40% inhibition = +)”. In addition, the “screening result against bitter receptor 54” value in the test on hT2R54 is “+ (20% to 40% inhibition = +)”. Moreover, the “screening result against bitter receptor 55” value with hT2R55 was “+++ (60% to 80% inhibition = +++)”. Moreover, in the test with hT2R63, the “screening result against bitter receptor 63” value is reported as “+++ (60% to 80% inhibition = +++)”. For the same molecule, the “screening result against bitter receptor 65” value with hT2R65 was “+++ (60% to 80% inhibition = +++)”. Further, in the test on hT2R67, the “screening result against bitter receptor 67” value is listed as “+ (20% to 40% inhibition = +)”.
For the molecule `O=C(O)c1ccc(S(=O)(=O)N(Cc2ccccc2)Cc2cccc(Cl)c2)cc1` [Example 5-84, 4-(N-benzyl-N-(3-chlorobenzyl)sulfamoyl)benzoic acid], the inhibition at 25 µM is 40 to 60% at hT2R3; 20 to 40% on hT2R5; 20 to 40% on hT2R10; above 80% at hT2R14; 20 to 40% on hT2R16; 60 to 80% on hT2R51. Besides, the inhibition at 25 µM on hT2R61 is above 80%; at hT2R64, 20 to 40%; at hT2R71, 20 to 40%; on hT2R75 it was 20 to 40%. Besides, in the test on hT2R44, the “screening result against bitter receptor 44” value is on record as “+ (20% to 40% inhibition = +)”. Also, the “screening result against bitter receptor 54” value in the test on hT2R54 is given as “++ (40% to 60% inhibition = ++)”. In addition, the “screening result against bitter receptor 55” value in the test with hT2R55 was “+++ (60% to 80% inhibition = +++)”. In addition, in the test on hT2R63, the “screening result against bitter receptor 63” value was “+++ (60% to 80% inhibition = +++)”. In addition, the “screening result against bitter receptor 65” value with hT2R65 is “+++ (60% to 80% inhibition = +++)”. Besides, the “screening result against bitter receptor 67” value with hT2R67 is reported as “+ (20% to 40% inhibition = +)”.
For `COc1ccc(CN(C(C)c2ccccc2)S(=O)(=O)c2ccc(C(=O)O)cc2)cc1` (stereo not drawn) [Example 5-95, 4-(N-(4-methoxybenzyl)-N-(1-phenylethyl)sulfamoyl)benzoic acid], the inhibition at 25 µM on hT2R3 was 40 to 60%; on hT2R5, 20 to 40%; on hT2R7 it was 20 to 40%; at hT2R10, 20 to 40%; on hT2R14, above 80%; at hT2R16 it was 40 to 60%. The inhibition at 25 µM is 20 to 40% on hT2R51; above 80% on hT2R61; 60 to 80% on hT2R64; 40 to 60% on hT2R71; 20 to 40% at hT2R75. In addition, the “screening result against bitter receptor 44” value with hT2R44 was “+++ (60% to 80% inhibition = +++)”. In addition, in the test on hT2R55, the “screening result against bitter receptor 55” value is reported as “++++ (80% or greater inhibition = ++++)”. For the same molecule, in the test on hT2R63, the “screening result against bitter receptor 63” value is on record as “++++ (80% or greater inhibition = ++++)”. The “screening result against bitter receptor 65” value with hT2R65 is “+++ (60% to 80% inhibition = +++)”. Besides, the “screening result against bitter receptor 67” value with hT2R67 is given as “+ (20% to 40% inhibition = +)”.

The values are drawn from patent US9247759B2, “Identification of human T2R receptors that respond to bitter compounds that elicit the bitter taste in compositions, and the use thereof in assays to identify compounds that inhibit (block) bitter taste in compositions and use thereof” (SENOMYX, INC., priority 2007, dated 2016).
